The source made the active and inactive calls. The calls are words filed in the database; no cut-off is given here.

In the first data set the test system is MV4-11. Nature of the data set: Antiproliferative activity against human MV4-11 cells harboring FLT3 ITD mutant after 72 hrs by MTS assay. In kind it is functional, cell-based. Particulars: MV4-11, 72 h.
For `CCNCC(=O)Nc1c(C)[nH]c(/C=C2\C(=O)Nc3ccc(F)cc32)c1C`, it took 43.8 nM to reach half-maximal inhibition (IC50). Turning to `CCN(CC)CC(=O)Nc1c(C)[nH]c(/C=C2\C(=O)Nc3ccc(F)cc32)c1C`, the IC50 (commonly the concentration that gives 50% inhibition) was > 200 nM.

`Cc1[nH]c(/C=C2\C(=O)Nc3ccc(F)cc32)c(C)c1NC(=O)CN1CCCC1` registered an IC50 of 74.4 nM.

With `CCCCNCC(=O)Nc1c(C)[nH]c(/C=C2\C(=O)Nc3ccc(F)cc32)c1C`, the half-maximal inhibitory concentration (IC50) is > 200 nM. For the compound `Cc1[nH]c(/C=C2\C(=O)Nc3ccc(F)cc32)c(C)c1NC(=O)CNC1CCCC1`, half-maximal inhibition (IC50) required 89.9 nM.

In the case of `CCNCCC(=O)Nc1c(C)[nH]c(/C=C2\C(=O)Nc3ccc(F)cc32)c1C`, the IC50 was determined as 25.7 nM. On the same count and under the same terms, the result for `Cc1[nH]c(/C=C2\C(=O)Nc3ccc(F)cc32)c(C)c1NC(=O)CCN1CCOCC1` reads 60.7 nM; that for `CCCN(CCC)CCC(=O)Nc1c(C)[nH]c(/C=C2\C(=O)Nc3ccc(F)cc32)c1C`, 142 nM.

The compound `Cc1[nH]c(/C=C2\C(=O)Nc3ccc(F)cc32)c(C)c1NC(=O)C1CCNCC1` had an IC50 of 14.7 nM. Same read-out and setting: the result for `Cc1[nH]c(/C=C2\C(=O)Nc3ccc(F)cc32)c(C)c1NC(=O)CN1CCOCC1` reads 66.1 nM; that for `Cc1[nH]c(/C=C2\C(=O)Nc3ccc(F)cc32)c(C)c1NC(=O)C1CCCNC1` (stereo not drawn), 24.1 nM. With `CCCCNCCC(=O)Nc1c(C)[nH]c(/C=C2\C(=O)Nc3ccc(F)cc32)c1C`, the IC50 was 73.4 nM. Still for that read-out and setting: the result for `Cc1[nH]c(/C=C2\C(=O)Nc3ccc(F)cc32)c(C)c1NC(=O)CN1CCCCC1` reads > 200 nM. The compound `Cc1[nH]c(/C=C2\C(=O)Nc3ccc(F)cc32)c(C)c1NC(=O)CCN(C)C` showed an IC50 of 27.1 nM. The same measure, in the same setting: the result for `Cc1[nH]c(/C=C2\C(=O)Nc3ccc(F)cc32)c(C)c1NC(=O)CCNC1CCCC1` reads 55 nM; that for `Cc1[nH]c(/C=C2\C(=O)Nc3ccc(F)cc32)c(C)c1NC(=O)CCN1CCN(C)CC1`, 45.3 nM. Same read-out and setting: the result for `CCN(CC)CCNC(=O)c1c(C)[nH]c(/C=C2\C(=O)Nc3ccc(F)cc32)c1C` [SUNITINIB] reads 38.5 nM. `Cc1[nH]c(/C=C2\C(=O)Nc3ccc(F)cc32)c(C)c1NC(=O)CCN1CCNCC1` displayed an IC50 of 39.2 nM. The same measure, in the same setting: the result for `Cc1[nH]c(/C=C2\C(=O)Nc3ccc(F)cc32)c(C)c1NC(=O)CN1CCNCC1` reads 17.1 nM. Turning to `CCCN(CCC)CC(=O)Nc1c(C)[nH]c(/C=C2\C(=O)Nc3ccc(F)cc32)c1C`, the concentration for half-maximal inhibition (IC50) is > 200 nM. Still for that read-out and setting: the result for `Cc1[nH]c(/C=C2\C(=O)Nc3ccc(F)cc32)c(C)c1NC(=O)CCNC1CCCCC1` reads 119 nM; that for `Cc1[nH]c(/C=C2\C(=O)Nc3ccc(F)cc32)c(C)c1NC(=O)CCNC(C)(C)C`, 30.3 nM; that for `CCCNCC(=O)Nc1c(C)[nH]c(/C=C2\C(=O)Nc3ccc(F)cc32)c1C`, 67.8 nM. Same read-out and setting: the result for `Cc1[nH]c(/C=C2\C(=O)Nc3ccc(F)cc32)c(C)c1NC(=O)CCN1CCCCC1` reads 33.7 nM.

In turn, `Cc1[nH]c(/C=C2\C(=O)Nc3ccc(F)cc32)c(C)c1NC(=O)CN(C)C` returned an IC50 of 47.5 nM. `Cc1[nH]c(/C=C2\C(=O)Nc3ccc(F)cc32)c(C)c1NC(=O)CNC(C)(C)C` showed an IC50 of 158 nM. Compound `CCCNCCC(=O)Nc1c(C)[nH]c(/C=C2\C(=O)Nc3ccc(F)cc32)c1C` gave an IC50 of 39.4 nM. With `Cc1[nH]c(/C=C2\C(=O)Nc3ccc(F)cc32)c(C)c1NC(=O)CN1CCN(C)CC1`, the concentration for half-maximal inhibition (IC50) was found to be 38.5 nM. Regarding `Cc1[nH]c(/C=C2\C(=O)Nc3ccc(F)cc32)c(C)c1NC(=O)CCN1CCCC1`, half-maximal inhibition (IC50) required 20 nM. This IC50 is about 1.9-fold lower than that of the compound before. Consider `Cc1[nH]c(/C=C2\C(=O)Nc3ccc(F)cc32)c(C)c1NC(=O)C1CCCCN1` (stereo not drawn), for which the IC50 was determined as 35.6 nM. On the same count and under the same terms, the result for `Cc1[nH]c(/C=C2\C(=O)Nc3ccc(F)cc32)c(C)c1NC(=O)[C@@H]1CCCN1` reads 41.4 nM; that for `Cc1[nH]c(/C=C2\C(=O)Nc3ccc(F)cc32)c(C)c1NC(=O)CNC1CCCCC1`, > 200 nM. `CCN(CC)CCC(=O)Nc1c(C)[nH]c(/C=C2\C(=O)Nc3ccc(F)cc32)c1C`: half-maximal inhibition (IC50) was put at 36.5 nM.

The subject of a further data set is MV4-11. Nature of the data set: Antitumor activity against human MV4-11 cells xenografted in Harlan nude mouse assessed as tumor growth inhibition administered ig qd for 20 days. It counts as functional. The note with it: MV4-11, po, 480 h, read-out: MED. (In general: Xenograft models place foreign cells or tissue in a host animal.)
As for `CCN(CC)CCNC(=O)c1c(C)[nH]c(/C=C2\C(=O)Nc3ccc(F)cc32)c1C` [SUNITINIB], the minimal effective dose stood at 10 mg/kg/day.

For another data set, the system named is MV4-11. Nature of the data set: Antitumor activity against human MV4-11 cells xenografted in Harlan nude mouse assessed as tumor growth inhibition administered orally measured after 1 week.
Conditions: not given
In kind it is functional, cell-based.
Regarding `Cc1[nH]c(/C=C2\C(=O)Nc3ccc(F)cc32)c(C)c1NC(=O)C1CCNCC1`, the TGI result is “inactive”.

Tested on in a further data set: not listed separately
Nature of the data set: Toxicity in Harlan nude mouse xenografted with human MV4-11 cells administered ig qd for 20 days. The note with it: in vivo, po.
For `CCN(CC)CCNC(=O)c1c(C)[nH]c(/C=C2\C(=O)Nc3ccc(F)cc32)c1C` [SUNITINIB], the MTD at 480 h stood at 80 mg/kg/day.

Tested on in a further data set: not listed separately
As to the kind of experiment: Inhibition of human FLT3 ITD mutant.
Conditions: not given
For the compound `CCN(CC)CCNC(=O)c1c(C)[nH]c(/C=C2\C(=O)Nc3ccc(F)cc32)c1C` [SUNITINIB], the IC50 came out at 1.4 nM.

The subject of a further data set is MV4-11. As to the kind of experiment: Antitumor activity against human MV4-11 cells xenografted in Harlan nude mouse assessed as tumor growth inhibition at 10 mg/kg, ig qd for 20 days relative to control. It counts as functional. The note with it: MV4-11, po, 480 h, read-out: TGI.
With `CCN(CC)CCNC(=O)c1c(C)[nH]c(/C=C2\C(=O)Nc3ccc(F)cc32)c1C` [SUNITINIB], the inhibition in vivo at 10 mg/kg was 81%.

The record behind these values is ChEMBL document CHEMBL4007390, “Design, synthesis and biological evaluation of indolin-2-one-based derivatives as potent, selective and efficacious inhibitors of FMS-like tyrosine kinase3 (FLT3)” (Eur J Med Chem, 2017).
